Structures can show the parent of a compound that is named as a salt.
Experiments:
HCT116 [1] = settings: 72 h
Procedure, shortened: (§1)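 Four-parameter Hill fits gave IC50 and maximal efficacy. The data were CellTiter-Glo luminescence readings in HCT116 cells, normalized so that vehicle was 0% and positive control was -100%, with pattern correction afterwards.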

HCT116 [2] = assay: efficacy (maximum % inhibition of viability vs DMSO); higher = more cytotoxic; settings: 72 h
Procedure, shortened: as §1

| Structure (SMILES) | IC50 cell viability (HCT116 [1]; ICRF193 0 nM) [µM] | IC50 cell viability (HCT116 [1]; ICRF193 200 nM) [µM] | efficacy (HCT116 [2]; ICRF193 0 nM) [%] | efficacy (HCT116 [2]; ICRF193 200 nM) [%] |
| --- | --- | --- | --- | --- |
| Cn1cncc1[C@@](N)(c1ccc(Cl)cc1)c1ccc2c(c1)c(-c1cccc(Cl)c1)cc(=O)n2C [Tipifarnib] | 20.6 | 23.1 | 118 | 126 |
| Cc1cc(/C=C/C#N)cc(C)c1Nc1ccnc(Nc2ccc(C#N)cc2)n1 [Rilpivirine] | 20.6 | 18.3 | 83.7 | 84.8 |
| CC1=C(C(=O)OCCN(Cc2ccccc2)c2ccccc2)C(c2cccc([N+](=O)[O-])c2)C(P2(=O)OCC(C)(C)CO2)=C(C)N1 (configuration not stated) [Efonidipine hydrochloride monoethanolate] | 16.4 | > 45.8 | 41.1 | – |
| CC(C)c1cc2c(cc1S(=O)(=O)O)[C@@]1(C)CCC[C@@](C)(C(=O)O)[C@@H]1CC2 [Ecabet] | > 45.8 | 0.103 | – | 63.3 |
| C[C@]12Cc3nonc3C[C@@H]1CC[C@@H]1[C@@H]2CC[C@@]2(C)[C@H]1CC[C@]2(C)O [Furazabol] | 18.3 | 23.1 | 46.7 | 51.4 |
| C[C@@H]1C[C@H]2[C@@H]3C[C@H](F)C4=CC(=O)C=C[C@]4(C)[C@@]3(F)[C@@H](O)C[C@]2(C)[C@@]1(OC(=O)c1ccco1)C(=O)SCF [Fluticasone furoate] | 29.1 | > 45.8 | 83.8 | – |
| Clc1cccc(Cl)c1NC1=NCCN1 [Clonidine] | > 45.8 | 4.11 | – | 68.5 |
| CCOC(=O)C1=C(C)NC(C)=C(C(=O)OCC)C1c1ccccc1/C=C/C(=O)OC(C)(C)C [Lacidipine] | 18.3 | 20.6 | 94 | 108 |
| OCCN1CCN(CCCN2c3ccccc3Sc3ccc(C(F)(F)F)cc32)CC1 [Fluphenazine hydrochloride] | 29.1 | 20.6 | 110 | 104 |
| C=C1c2c(Cl)ccc(O)c2C(=O)C2=C(O)[C@]3(O)C(=O)C(C(N)=O)=C(O)[C@@H](N(C)C)[C@@H]3[C@@H](O)[C@H]12.O=C(O)c1cc(S(=O)(=O)O)ccc1O [Meclocycline sulfosalicylate] | 20.6 | 29.1 | 54.3 | 64 |
| CN1CCC2=C(C1)c1ccccc1Cc1ccccc12 [Setiptiline] | 20.6 | > 45.8 | 44.1 | – |
| CCCC(=O)O[C@]1(C(=O)CCl)[C@H](C)C[C@@H]2[C@@H]3CCC4=CC(=O)C=C[C@]4(C)[C@]3(F)C(=O)C[C@@]21C [Clobetasone butyrate] | 20.6 | 14.6 | 50.4 | 40.9 |
| Nc1ccc2cc3ccc(N)cc3nc2c1 [Proflavin hemisulfate] | 20.6 | 29.1 | 95.1 | 93.6 |
| C[C@@H]1O[C@@H](O[C@H]2C[C@@H](O)[C@]3(CO)[C@H]4[C@H](O)C[C@]5(C)[C@@H](C6=CC(=O)OC6)CC[C@]5(O)[C@@H]4CC[C@]3(O)C2)[C@H](O)[C@H](O)[C@H]1O [Ouabain octahydrate] | 0.116 | 0.13 | 104 | 84.4 |
| COc1cccc2c1C(=O)c1c(O)c3c(c(O)c1C2=O)C[C@@](O)(C(C)=O)C[C@@H]3O[C@H]1C[C@H](N)[C@H](O)[C@H](C)O1 [Daunorubicin] | 0.461 | 0.0517 | 102 | 83.8 |
| COC(=O)C1=C(C)NC(C)=C(C(=O)OCCN2CCN(C(c3ccccc3)c3ccccc3)CC2)C1c1cccc([N+](=O)[O-])c1 (configuration not stated) [Manidipine] | 18.3 | 18.3 | 92 | 90.1 |
| CC[C@@]1(O)C(=O)OCc2c1cc1n(c2=O)Cc2c-1nc1ccccc1c2/C=N/OC(C)(C)C [Gimatecan] | 0.183 | > 45.8 | 48.8 | – |
| C[C@@]12C(=O)OC(=O)[C@]1(C)[C@H]1CC[C@@H]2O1 [Cantharidin] | 5.8 | 4.11 | 74.9 | 77.2 |
| OCCN1CCN(CCCN2c3ccccc3Sc3ccc(Cl)cc32)CC1 [Perphenazine] | 23.1 | 23.1 | 108 | 115 |
| CCCCC1C(=O)N(c2ccccc2)N(c2ccc(O)cc2)C1=O (configuration not stated) [Oxyphenbutazone] | 11.6 | 9.2 | 103 | 55.1 |
| O=C(O)C1=C(CSc2nnnn2CS(=O)(=O)O)CS[C@@H]2[C@H](NC(=O)[C@H](O)c3ccccc3)C(=O)N12 [CEFONICID SODIUM] | > 45.8 | 6.51 | – | 85.2 |

Reference: the supplement of paper PMC12137928
